Results reported in patent publication US12370210B2, “Carbon monoxide as a treatment for neurodegenerative disease” (The General Hospital Corporation, priority 2019, dated 2025).

System: mouse MPTP toxin model
Assay: Mouse MPTP toxin model, striatal DA by HPLC and TH+ neuron counts after inhaled CO
Assay type: in vivo
Description: FIGS. 7A-C. Effect of single dose inhaled CO in the MPTP model. CO (225 ppm; 1 hr) or air (1 hr) administered 1 hr after MPTP or saline injection (normal control saline data not shown; no difference between groups in normal control animals). Animal sacrifice 5 days after MPTP. A. CO preserved striatal dopamine (DA) (P<0.03, t-test; 22 mice/grp). Striatal DA levels measured with HPLC, B. CO reduced loss of substantia nigra pars compacta (SNpc) tyrosine hydroxylase-positive (TH+) neurons. C. Stereological nigral TH+ neuron counts after CO treatment or air (P<0.05, t-test). Mean±std error.
We also employed a short-term regimen of the widely used^5253 MPTP toxin model in which DA loss ensues within 5-8 days of MPTP. We elected to initiate iCO treatment only after MPTP exposure in order to model protective treatment of human PD, which begins only after disease onset. We exposed mice to MPTP (40 mg/kg, i.p.)^54,55 or saline (study control) and then treated with a single dose of either iCO (225 ppm) or air (negative control) for 1 hr, for 4 total groups: 1) MPTP/CO (225 ppm; 1 hr), 2) MPTP/air (1 hr), 3) saline/CO (225 ppm; 1 hr), 4) saline/air (1 hr). Five days after MPTP exposure, we measured DA levels in the striata via HPLC and counted TH+ neurons in all groups. MPTP mice treated with CO had ˜46% higher DA levels than those treated with air (2-tailed t-test, p=0.028; FIG. 7A). […] Critically, for TH+ neurons, MPTP mice treated with iCO had ˜22% more TH+ neurons than those treated with air (p<0.05; FIGS. 7B-C).

[C-]#[O+] [CO, carbon monoxide]
striatal DA levels higher than air-treated MPTP mice (MPTP 40 mg/kg i.p., CO 225 ppm 1 hr, single dose 1 hr after MPTP, 5 days after MPTP, p=0.028): ~46%
more TH+ neurons than air-treated MPTP mice (MPTP 40 mg/kg i.p., iCO 225 ppm 1 hr, 5 days after MPTP, p<0.05): ~22%
striatal DA levels in saline-treated mice (saline instead of MPTP, iCO 225 ppm 1 hr, n=22 per group, p>0.05 vs air): 97.0 ± 2.4 pmol/mg
TH+ cell counts in saline-treated mice (saline instead of MPTP, iCO 225 ppm 1 hr, p>0.05 vs air): 7,437±545
